Measured values: ChEMBL document CHEMBL1201862, “PubChem BioAssay data set” (2004)
The source made the active and inactive calls.

Tests used:
[1] = inhibitors of intracellular T. cruzi replication, confirmation, NIH3T3 host cells, beta-gal luminescence (AID 2044); type: functional, cell-based;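 further: intracellular parasites grown in NIH/3T3 mouse fibroblasts as host cells; luminescent beta-galactosidase reporter signal from transgenic T. cruzi replicating inside host cells; inhibitors lower the luminescence signal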
[2] = cytotoxicity toward NIH3T3 fibroblasts, dose response, counter-screen, cell-based, ATP luminescence, mouse fibroblasts (AID 2010); type: functional;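 further: cells exposed to compound for about 90 hours before reading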
[3] = cells
[4] = Luminescence Cell-Based Dose Response to Identify Activators of 5'UTR Stem-Loop Driven Prion Protein mRNA Translation in H4-C Neuroglioblastoma Cells. [Related pubchem assays: 1829 (Project Summary), 1814 (Primary HTS)]; type: functional
[5] = Luminescence Cell-Based Dose Response HTS to Identify Activators of Luciferase Translation or Activity in H4 […] Cells. [Related pubchem assays: 1829 (Project Summary), 1814 (Primary HTS)]; type: functional
[6] = test system: H4; assay: Luminescence Cell-Based Dose Response HTS to Identify Activators of 5'UTR Stem-Loop Driven Prion Protein mRNA Translation in H4 Neuroglioblastoma Cells. [Related pubchem assays: 1829 (Project Summary), 1814 (Primary HTS)]; type: functional; details: Homo sapiens
[7] = Luminescence Cell-Based Dose Response to Identify Activators of Luciferase Translation or Activity in H4-C Neuroglioblastoma Cells. [Related pubchem assays: 1829 (Project Summary), 1814 (Primary HTS)]; type: functional
[8] = Luminescence Cell-Based Dose Confirmation to Identify Activators of 5'UTR Stem-Loop Driven Alpha-Synuclein mRNA Translation in H4 Neuroglioblastoma Cells. [Related pubchem assays: 1829 (Project Summary), 1814 (Primary HTS)]; type: functional
[9] = biological target: T1, Leucine aminopeptidase (Plasmodium falciparum 3D7, UniProt Q8IL11); assay: P. falciparum M17LAP inhibitors, primary screen, biochemical, fluorogenic H-Leu-NHMec substrate, 1536-well (AID 1619); type: functional
T1 sequence (Q8IL11 whole entry): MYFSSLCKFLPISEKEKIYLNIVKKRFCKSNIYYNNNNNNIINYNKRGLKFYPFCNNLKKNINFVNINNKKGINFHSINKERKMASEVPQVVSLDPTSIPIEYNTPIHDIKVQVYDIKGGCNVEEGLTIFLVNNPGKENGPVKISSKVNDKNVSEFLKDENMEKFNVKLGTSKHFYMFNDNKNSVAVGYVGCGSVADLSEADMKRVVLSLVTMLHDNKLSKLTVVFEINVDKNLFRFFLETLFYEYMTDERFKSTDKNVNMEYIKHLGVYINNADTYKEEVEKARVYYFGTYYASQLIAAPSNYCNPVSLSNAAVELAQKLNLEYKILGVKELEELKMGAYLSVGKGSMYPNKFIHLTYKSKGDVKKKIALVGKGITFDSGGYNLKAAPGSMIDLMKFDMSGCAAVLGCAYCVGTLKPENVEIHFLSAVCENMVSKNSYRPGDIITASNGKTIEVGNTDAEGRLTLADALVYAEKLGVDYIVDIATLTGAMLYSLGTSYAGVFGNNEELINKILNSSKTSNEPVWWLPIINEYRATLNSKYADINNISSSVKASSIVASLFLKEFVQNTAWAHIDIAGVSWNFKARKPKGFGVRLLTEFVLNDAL

[10] = biological target: Aspartyl aminopeptidase (Plasmodium falciparum 3D7, UniProt Q8I2J3); assay: Counterscreen for inhibitors of M1 and M17 aminopeptidases: QFRET-based biochemical high throughput dose response assay for inhibitors of the Plasmodium falciparum M18 Aspartyl Aminopeptidase (PFM18AAP). [Related PubChem assays: 1619 (Screening assay (M17LAP inhibitors).), 1445 (Screening assay (M1AAP inhibitors).)]
[11] = A cytotoxicity screen of small molecule inhibitors of the PhoP region in Salmonella typhi identified in the primary screen. [Related pubchem assays: 1850, 1864, 1985 ]; type: functional
[12] = biological target: Procathepsin L (Homo sapiens, UniProt P07711); assay: cathepsin L inhibitors, dose response, counter-screen for M1/M17 aminopeptidase inhibitor project, biochemical, QFRET, 1536-well (AID 2214)
[13] = cytotoxicity in HPDE-C7 cells, cell-based, fluorescence, HTS (AID 430); type: functional; details: Homo sapiens
[14] = cytotoxicity in KRAS-transformed pancreatic duct cells, primary screen, cell-based, fluorescence, HTS (AID 431); type: functional; details: Homo sapiens;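 further: cell line used: HPDE-C7K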
[15] = test system: HeLa; assay: Cytotoxicity counterscreen assay for transcriptional activators of heat shock protein 70 (Hsp70). [Related pubchem assays: 1203, 1252 ]; type: functional; details: Homo sapiens;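 further: cells exposed to compound for 16 hours before readout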
[16] = biological target: Transitional endoplasmic reticulum ATPase (Homo sapiens, UniProt P55072, C522A); assay: C522A mutant p97 ATPase inhibitors, dose response, counter-screen for p97 inhibitor project, biochemical, luminescence (AID 1544)
[17] = biological target: Transitional endoplasmic reticulum ATPase (Homo sapiens, UniProt P55072); assay: p97 ATPase inhibitors, dose response, biochemical (AID 1534)
[18] = biological target: T2, Ubiquitin-conjugating enzyme E2 N (Homo sapiens, UniProt P61088); type: functional;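 further: Dose-response confirmation in a TR-FRET assay detecting UBC13-driven polyubiquitin chain formation, inhibition measured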
T2 sequence (P61088 whole entry): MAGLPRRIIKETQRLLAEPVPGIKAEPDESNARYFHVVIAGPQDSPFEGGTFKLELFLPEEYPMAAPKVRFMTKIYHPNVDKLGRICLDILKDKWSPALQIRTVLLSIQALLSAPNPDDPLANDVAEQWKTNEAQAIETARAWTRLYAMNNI

[19] = test system: INS1; assay: beta cell apoptosis inhibitors, cytokine rescue, dose response, luminescence, retest (AID 449756); type: functional, cell-based; details: Rattus norvegicus;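 further: cell death triggered by IL-1 beta plus TNF-alpha plus IFN-gamma mixture; protective hits raise ATP signal compared with cytokine alone wells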
[20] = biological target: T3, Short transient receptor potential channel 4 (Mus musculus, UniProt Q9QUQ5); assay: mouse TRPC4 channel inhibitors, dose response, cell-based, HEK293 TRPC4/mu-opioid, Fluo-4 calcium (AID 434942); type: functional;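 further: potency of inhibitors blocking the TRPC4 calcium response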
T3 sequence (Q9QUQ5 whole entry): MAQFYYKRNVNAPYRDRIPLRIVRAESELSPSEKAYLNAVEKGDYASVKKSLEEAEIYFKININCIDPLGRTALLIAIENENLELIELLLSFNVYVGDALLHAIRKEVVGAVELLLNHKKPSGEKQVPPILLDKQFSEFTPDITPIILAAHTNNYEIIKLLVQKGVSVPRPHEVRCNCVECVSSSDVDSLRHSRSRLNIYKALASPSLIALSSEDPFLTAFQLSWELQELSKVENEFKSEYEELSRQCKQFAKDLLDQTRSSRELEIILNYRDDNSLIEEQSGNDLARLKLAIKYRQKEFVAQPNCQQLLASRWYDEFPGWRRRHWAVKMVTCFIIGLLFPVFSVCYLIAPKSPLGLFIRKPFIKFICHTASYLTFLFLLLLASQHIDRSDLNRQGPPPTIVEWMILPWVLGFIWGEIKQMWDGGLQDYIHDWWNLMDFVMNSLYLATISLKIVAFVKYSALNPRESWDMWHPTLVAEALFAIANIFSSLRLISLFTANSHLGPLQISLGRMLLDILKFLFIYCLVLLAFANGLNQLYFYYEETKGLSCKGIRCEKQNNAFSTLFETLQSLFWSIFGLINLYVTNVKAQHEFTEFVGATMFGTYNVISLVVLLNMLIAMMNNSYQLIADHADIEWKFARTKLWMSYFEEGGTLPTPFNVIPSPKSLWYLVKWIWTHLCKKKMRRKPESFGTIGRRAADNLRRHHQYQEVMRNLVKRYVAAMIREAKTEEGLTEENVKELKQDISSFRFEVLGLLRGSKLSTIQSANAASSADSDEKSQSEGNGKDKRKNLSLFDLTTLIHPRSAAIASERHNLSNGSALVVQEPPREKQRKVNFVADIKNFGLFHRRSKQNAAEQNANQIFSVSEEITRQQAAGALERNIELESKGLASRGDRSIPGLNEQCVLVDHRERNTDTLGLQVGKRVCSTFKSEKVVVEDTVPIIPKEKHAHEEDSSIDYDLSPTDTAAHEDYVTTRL

[21] = biological target: Aryl hydrocarbon receptor (Homo sapiens, UniProt P35869); assay: Luminescence-based cell-based high throughput dose response assay for activators of the Aryl Hydrocarbon Receptor (AHR). [Related pubchem assays: 2796 (Primary screen (AHR activators in singlicate)), 2845 (Confirmation screen (AHR activators in triplicate)), 434939 (Counterscreen (PXR activators in triplicate)), 2804 (Summary (AHR activators))]; type: ADME
[22] = biological target: Heat shock protein HSP 90-alpha (Homo sapiens, UniProt P07900); assay: Luminescence-based dose response biochemical high throughput screening assay for inhibitors of the Heat Shock Protein 90 (HSP90). [Related pubchem assays: 1831 (Summary AID.), 1846 (Confirmation screen.), 1789 (Primary screen.)]
[23] = test system: Danio rerio; assay: In Vivo Angiogenesis Dose-Response Confirmation. [Related pubchem assays: 732 (Assay preceding this confirmatory assay.)]; type: functional, organism-based
[24] = biological target: Peroxisome proliferator-activated receptor gamma/Nuclear receptor coactivator 2 (Homo sapiens, UniProt P37231); type: functional;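 further: agonist potency for raising coactivator recruitment to the receptor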
[25] = biological target: Peroxisome proliferator-activated receptor gamma/Nuclear receptor coactivator 1 (Homo sapiens, UniProt P37231); type: functional;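 further: agonist potency as compounds enhance coactivator SRC-1 recruitment to PPARgamma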
[26] = biological target: Peroxisome proliferator-activated receptor gamma/Nuclear receptor coactivator 3 (Homo sapiens, UniProt P37231); type: functional;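 further: agonist potency for raising coactivator recruitment to the receptor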
[27] = biological target: T4, Calpain-2 catalytic subunit (Sus scrofa, UniProt P43367); assay: pig calpain II inhibitor potency, dose response, biochemical, fluorogenic peptide substrate (AID 1420); type: functional
T4 sequence (P43367 whole entry): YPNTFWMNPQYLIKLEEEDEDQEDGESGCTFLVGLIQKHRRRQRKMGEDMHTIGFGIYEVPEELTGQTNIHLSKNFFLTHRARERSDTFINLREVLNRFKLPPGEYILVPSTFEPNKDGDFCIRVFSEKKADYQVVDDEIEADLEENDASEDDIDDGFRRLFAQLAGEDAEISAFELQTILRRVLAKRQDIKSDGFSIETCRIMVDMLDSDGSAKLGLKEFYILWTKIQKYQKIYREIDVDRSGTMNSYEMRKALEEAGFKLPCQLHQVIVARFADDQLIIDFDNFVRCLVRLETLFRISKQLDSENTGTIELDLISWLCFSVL

[28] = Luminescence Cell-Based Dose Retest to Confirm Inhibitors of Cancer Stem Cells. [Related pubchem assays (depositor defined):AID2717, AID2721]; type: functional; details: Homo sapiens
[29] = Luminescence-based cell-based high throughput dose response assay to identify activators of the DAF-12 from the parasite S. stercoralis (ssDAF-12).; type: functional
[30] = biological target: Cytochrome P450 3A4 (Homo sapiens, UniProt P08684);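 further: CYP3A4 tested as one member of a cytochrome P450 panel screen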
Cytochrome P450 3A4, sequence (P08684 whole entry): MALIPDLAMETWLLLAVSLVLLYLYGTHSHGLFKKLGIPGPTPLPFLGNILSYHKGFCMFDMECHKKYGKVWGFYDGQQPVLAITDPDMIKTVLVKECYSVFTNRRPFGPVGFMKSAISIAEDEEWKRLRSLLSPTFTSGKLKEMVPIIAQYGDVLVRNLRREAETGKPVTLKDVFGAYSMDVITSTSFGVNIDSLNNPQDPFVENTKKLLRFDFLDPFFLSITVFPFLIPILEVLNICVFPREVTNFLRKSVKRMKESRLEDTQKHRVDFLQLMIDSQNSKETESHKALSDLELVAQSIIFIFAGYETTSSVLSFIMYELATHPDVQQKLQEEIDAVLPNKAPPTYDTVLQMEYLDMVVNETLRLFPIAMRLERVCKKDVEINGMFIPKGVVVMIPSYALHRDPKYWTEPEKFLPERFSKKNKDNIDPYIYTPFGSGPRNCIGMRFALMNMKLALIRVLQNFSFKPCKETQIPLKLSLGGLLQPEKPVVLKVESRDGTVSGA

Aryl hydrocarbon receptor, sequence (P35869 whole entry): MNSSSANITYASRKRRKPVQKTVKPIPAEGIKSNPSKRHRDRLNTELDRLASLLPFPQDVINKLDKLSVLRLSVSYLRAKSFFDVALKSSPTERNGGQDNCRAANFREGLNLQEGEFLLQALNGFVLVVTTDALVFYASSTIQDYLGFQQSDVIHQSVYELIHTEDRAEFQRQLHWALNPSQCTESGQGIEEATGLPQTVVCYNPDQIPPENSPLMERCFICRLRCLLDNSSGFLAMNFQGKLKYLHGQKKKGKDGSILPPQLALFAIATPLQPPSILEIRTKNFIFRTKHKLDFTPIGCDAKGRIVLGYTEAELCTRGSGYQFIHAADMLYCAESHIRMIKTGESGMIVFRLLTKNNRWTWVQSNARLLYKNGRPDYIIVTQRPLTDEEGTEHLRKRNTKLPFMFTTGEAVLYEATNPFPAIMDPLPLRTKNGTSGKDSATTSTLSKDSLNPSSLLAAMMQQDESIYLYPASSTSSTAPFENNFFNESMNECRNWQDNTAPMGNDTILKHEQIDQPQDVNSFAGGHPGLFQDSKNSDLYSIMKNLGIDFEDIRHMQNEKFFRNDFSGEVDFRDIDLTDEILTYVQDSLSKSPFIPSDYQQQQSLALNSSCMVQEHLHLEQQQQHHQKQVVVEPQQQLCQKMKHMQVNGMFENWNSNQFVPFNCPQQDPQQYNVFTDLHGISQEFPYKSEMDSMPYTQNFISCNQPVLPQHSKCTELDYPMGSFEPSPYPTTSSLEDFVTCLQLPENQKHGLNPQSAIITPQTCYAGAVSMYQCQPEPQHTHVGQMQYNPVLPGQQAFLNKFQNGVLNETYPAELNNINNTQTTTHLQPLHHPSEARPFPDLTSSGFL
Procathepsin L, sequence (P07711 whole entry): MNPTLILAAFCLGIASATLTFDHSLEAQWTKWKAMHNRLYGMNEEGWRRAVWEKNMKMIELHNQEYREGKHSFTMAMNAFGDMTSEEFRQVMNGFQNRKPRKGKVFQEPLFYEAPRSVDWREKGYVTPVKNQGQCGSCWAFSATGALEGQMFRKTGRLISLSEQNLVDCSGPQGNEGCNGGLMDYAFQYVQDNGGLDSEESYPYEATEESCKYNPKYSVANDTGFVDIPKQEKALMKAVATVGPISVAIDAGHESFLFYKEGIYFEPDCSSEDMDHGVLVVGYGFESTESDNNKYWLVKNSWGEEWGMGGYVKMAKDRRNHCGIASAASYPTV
Aspartyl aminopeptidase, sequence (Q8I2J3 whole entry): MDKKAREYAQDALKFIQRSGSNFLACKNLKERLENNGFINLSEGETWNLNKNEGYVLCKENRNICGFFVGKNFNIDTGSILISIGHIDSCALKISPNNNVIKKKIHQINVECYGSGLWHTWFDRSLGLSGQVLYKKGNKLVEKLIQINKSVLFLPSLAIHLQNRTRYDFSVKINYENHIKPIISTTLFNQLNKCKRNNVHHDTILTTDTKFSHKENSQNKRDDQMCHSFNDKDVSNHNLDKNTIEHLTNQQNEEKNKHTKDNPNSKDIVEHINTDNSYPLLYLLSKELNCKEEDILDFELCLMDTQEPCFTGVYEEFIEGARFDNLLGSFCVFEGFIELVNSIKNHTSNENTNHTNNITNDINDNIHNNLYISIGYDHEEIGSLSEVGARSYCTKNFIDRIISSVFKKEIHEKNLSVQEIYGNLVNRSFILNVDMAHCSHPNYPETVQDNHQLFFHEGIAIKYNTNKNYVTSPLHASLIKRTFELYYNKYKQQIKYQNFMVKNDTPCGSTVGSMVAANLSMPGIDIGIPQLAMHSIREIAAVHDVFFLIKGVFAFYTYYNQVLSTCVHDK
Peroxisome proliferator-activated receptor gamma/Nuclear receptor coactivator 3, sequence (P37231 whole entry): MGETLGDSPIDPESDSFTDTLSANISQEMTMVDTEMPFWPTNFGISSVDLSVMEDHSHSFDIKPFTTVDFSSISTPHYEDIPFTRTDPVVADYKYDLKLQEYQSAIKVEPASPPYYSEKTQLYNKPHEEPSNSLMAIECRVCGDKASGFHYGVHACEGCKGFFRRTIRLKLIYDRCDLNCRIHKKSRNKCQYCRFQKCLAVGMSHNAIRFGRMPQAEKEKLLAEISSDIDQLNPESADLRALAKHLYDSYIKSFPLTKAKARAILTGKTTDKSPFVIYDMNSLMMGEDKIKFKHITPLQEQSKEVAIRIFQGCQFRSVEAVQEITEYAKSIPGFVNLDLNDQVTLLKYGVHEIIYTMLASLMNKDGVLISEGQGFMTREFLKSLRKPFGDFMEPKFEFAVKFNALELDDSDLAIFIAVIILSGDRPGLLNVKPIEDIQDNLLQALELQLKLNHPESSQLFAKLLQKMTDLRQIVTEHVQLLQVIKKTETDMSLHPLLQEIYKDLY
Peroxisome proliferator-activated receptor gamma/Nuclear receptor coactivator 3, sequence (Q9Y6Q9 whole entry, further chain): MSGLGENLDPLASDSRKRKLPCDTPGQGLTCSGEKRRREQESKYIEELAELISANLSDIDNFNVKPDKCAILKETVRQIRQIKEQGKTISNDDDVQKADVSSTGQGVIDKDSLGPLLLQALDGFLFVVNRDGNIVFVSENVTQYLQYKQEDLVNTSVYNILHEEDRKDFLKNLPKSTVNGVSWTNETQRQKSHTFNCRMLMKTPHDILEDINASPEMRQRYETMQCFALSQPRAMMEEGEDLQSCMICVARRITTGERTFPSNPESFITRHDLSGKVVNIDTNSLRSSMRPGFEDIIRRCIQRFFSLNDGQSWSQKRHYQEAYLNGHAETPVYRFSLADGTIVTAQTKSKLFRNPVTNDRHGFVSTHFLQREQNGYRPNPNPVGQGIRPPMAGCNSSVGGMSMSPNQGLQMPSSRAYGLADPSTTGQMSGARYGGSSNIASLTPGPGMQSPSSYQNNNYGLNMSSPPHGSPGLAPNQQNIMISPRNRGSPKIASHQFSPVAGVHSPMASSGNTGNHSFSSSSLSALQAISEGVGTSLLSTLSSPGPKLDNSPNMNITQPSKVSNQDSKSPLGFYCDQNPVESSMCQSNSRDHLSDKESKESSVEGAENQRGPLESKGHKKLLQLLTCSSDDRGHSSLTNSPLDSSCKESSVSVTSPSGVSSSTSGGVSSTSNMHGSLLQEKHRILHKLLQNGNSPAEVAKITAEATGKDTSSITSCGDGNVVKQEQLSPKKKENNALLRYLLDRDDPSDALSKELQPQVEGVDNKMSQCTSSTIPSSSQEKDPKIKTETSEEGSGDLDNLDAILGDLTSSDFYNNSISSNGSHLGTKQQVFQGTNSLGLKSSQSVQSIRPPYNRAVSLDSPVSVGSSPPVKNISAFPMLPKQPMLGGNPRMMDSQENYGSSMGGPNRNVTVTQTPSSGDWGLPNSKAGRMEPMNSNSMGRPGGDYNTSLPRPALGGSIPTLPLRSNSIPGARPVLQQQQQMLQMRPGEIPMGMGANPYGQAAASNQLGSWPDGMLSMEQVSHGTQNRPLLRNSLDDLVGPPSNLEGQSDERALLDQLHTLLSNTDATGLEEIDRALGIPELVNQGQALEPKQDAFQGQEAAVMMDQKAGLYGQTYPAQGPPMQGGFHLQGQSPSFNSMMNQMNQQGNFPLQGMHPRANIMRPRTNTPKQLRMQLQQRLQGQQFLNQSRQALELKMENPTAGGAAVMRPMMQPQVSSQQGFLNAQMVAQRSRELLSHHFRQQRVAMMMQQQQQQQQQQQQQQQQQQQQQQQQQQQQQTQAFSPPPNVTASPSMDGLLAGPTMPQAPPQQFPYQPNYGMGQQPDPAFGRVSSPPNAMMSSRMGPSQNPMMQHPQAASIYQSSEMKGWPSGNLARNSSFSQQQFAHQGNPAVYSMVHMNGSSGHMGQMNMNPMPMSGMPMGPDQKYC
Transitional endoplasmic reticulum ATPase (Homo sapiens, UniProt P55072, C522A), sequence (P55072 2-806 C522A limits assumed): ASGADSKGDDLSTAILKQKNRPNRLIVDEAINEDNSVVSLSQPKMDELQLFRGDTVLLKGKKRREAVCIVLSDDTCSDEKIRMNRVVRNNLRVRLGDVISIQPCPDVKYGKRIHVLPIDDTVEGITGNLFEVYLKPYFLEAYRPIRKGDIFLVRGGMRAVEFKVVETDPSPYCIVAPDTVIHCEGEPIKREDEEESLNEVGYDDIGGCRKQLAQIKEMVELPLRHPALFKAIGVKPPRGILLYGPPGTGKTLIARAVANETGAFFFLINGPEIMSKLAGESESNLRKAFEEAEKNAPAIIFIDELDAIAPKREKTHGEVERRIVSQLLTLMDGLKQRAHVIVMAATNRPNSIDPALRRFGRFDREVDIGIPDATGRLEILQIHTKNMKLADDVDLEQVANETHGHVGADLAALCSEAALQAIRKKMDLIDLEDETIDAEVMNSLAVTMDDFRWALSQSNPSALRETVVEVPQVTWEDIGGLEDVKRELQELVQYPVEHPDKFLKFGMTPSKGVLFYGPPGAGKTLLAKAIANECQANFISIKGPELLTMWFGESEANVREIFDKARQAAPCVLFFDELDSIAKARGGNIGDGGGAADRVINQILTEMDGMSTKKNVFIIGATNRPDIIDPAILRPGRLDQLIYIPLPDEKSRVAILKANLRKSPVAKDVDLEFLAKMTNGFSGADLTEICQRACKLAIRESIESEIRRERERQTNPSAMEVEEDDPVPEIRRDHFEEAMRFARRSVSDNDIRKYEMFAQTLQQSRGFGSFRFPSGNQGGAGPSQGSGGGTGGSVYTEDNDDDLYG

COC(=O)c1ccc(CN2CCCC(CCC(=O)NCc3ccc(C)o3)C2)cc1 (stereo not given)
EC50 [1]: < 0.1 µM (active) | EC50 [2]: > 60 µM (not active) | EC50 [3]: 0.113 µM (active)

COc1ccccc1-c1nc(-c2ccc(Br)cc2)no1
EC50 [4]: 0.427 µM (active) | EC50 [5]: 0.217 µM (active) | EC50 [6]: < 0.1 µM (active) | EC50 [7]: 0.378 µM (active) | EC50 [8]: 0.34 µM (active)

CCCCc1c(O)nc(SCC(=O)Nc2ccc3c(c2)CCC3)nc1O
IC50 [9]: 7.61 µM (active) | IC50 [10]: > 73.5 µM (not active) | EC50 [11]: > 50 µM (active) | IC50 [12]: > 59.6 µM (not active)

Cc1ccc(S(=O)(=O)Nc2ccc3oc(=O)sc3c2)c(C)c1
EC50 [13]: 12.8 µM (active) | EC50 [14]: 13.7 µM (active)

CCOC(=O)c1sc2nc(C)nc(Nc3ccccc3)c2c1C
CC50 [15]: > 99 µM (not active)

Cc1no[n+]([O-])c1COc1ccccc1/C=C1\NC(=S)NC1=O
IC50 [16]: > 50 µM (not active) | IC50 [17]: > 50 µM (not active)

COCC(=O)Nc1cccc(Br)c1
CC50 [15]: > 99 µM (not active)

CC(C)(C)c1cc(NCCCn2ccnc2)n2ncc(-c3ccccc3)c2n1
EC50 [4]: 1.27 µM (active) | EC50 [5]: < 0.1 µM (active) | EC50 [6]: > 120 µM (not active) | EC50 [7]: 0.377 µM (active) | EC50 [8]: 0.735 µM (active) | IC50 [18]: > 20 µM (inactive) | AC50 [19]: 11 µM (active)

Cc1ccccc1Oc1ccc(NC(=O)C2CC=CCC2C(=O)O)cc1 (stereo not given)
IC50 [9]: 1.33 µM (active) | IC50 [10]: > 73.5 µM (not active) | IC50 [12]: > 59.6 µM (not active)

COc1cc(CN(C)CC2CCCN(CCc3ccccc3F)C2)cc(Cl)c1OC (stereo not given)
EC50 [1]: < 0.1 µM (active) | EC50 [2]: 11.1 µM (active) | EC50 [20]: 3.35 µM (active) | EC50 [3]: 0.263 µM (active)

Cc1ccc(C)c2sc(NC(=O)C3CC3)nc12
EC50 [21]: 4.22 µM (active)

COC(=O)c1ccc(N/C=C/C(=O)c2ccccc2)cc1
IC50 [22]: 3.73 µM (active)

O=C(CN1CCOCC1)Nc1nc2ccc([N+](=O)[O-])cc2s1
EC50 [21]: 2.61 µM (active)

Cc1cccc2c1NC(=O)/C2=C1\Nc2ccccc2\C1=N/O
IC50 [23]: 0.68 µM (active)

CCc1cc2c(=O)c(-c3nc(C)cs3)coc2cc1OC(C)C(=O)NCCO (stereo not given)
EC50 [24]: > 79.4 µM (not active) | EC50 [25]: > 79.4 µM (not active) | EC50 [26]: > 79.4 µM (not active) | IC50 [27]: 3.22 µM (not active)

Cc1[nH]n(-c2ccccc2)c(=O)c1N=Nc1ccc(C(N)=O)cc1
IC50 [22]: 20.9 µM (not active)

CCN1C(=O)CS/C1=N/C1C2CC3CC(C2)CC1C3 (stereo not given)
EC50 [13]: > 20 µM (not active) | EC50 [14]: 11.4 µM (active)

CCOC(=O)c1sc2nccc(N(C)C)c2c1/N=C/N(C)C
EC50 [24]: > 79.4 µM (not active) | EC50 [25]: > 79.4 µM (not active) | EC50 [26]: > 79.4 µM (not active)

O=c1c2ccccc2nc2n1CCc1c-2[nH]c2ccccc12 [RUTAECARPINE]
IC50 [23]: 25.5 µM (not active) | AC50 [28]: 25.1 µM (active) | IC50 [29]: > 67.6 µM (inactive) | AC50 [30]: 3.98 µM (inconclusive)
